Measured values reported in patent US11214803B2, “Modulators of YAP1 expression” (Ionis Pharmaceuticals, Inc., priority 2019, dated 2022).
pIC50: −log10 of the molar value. Marks after values point to notes of the source that are not given here. Strand notation (5' to 3'): a small letter for the sugar, then the base; units joined by * are phosphorothioate-linked, units joined directly phosphodiester-linked; [ ] holds rarer units or linkages, { } end groups; capitals alone tell only the bases. e = 2'-O-(2-methoxyethyl) (MOE); k = constrained ethyl (cEt); [5mC] = 5-methylcytosine; d = 2'-deoxy (DNA); m = 2'-O-methyl

Legend:
[1] = Tolerability in CD-1 mice, body and organ weights (Example 17); assay type: in vivo; details: male CD-1 mice, 50 mg/kg s.c. twice a week for four weeks (8 treatments), end of study (day 27)
Experimental: (§1) Groups of four male CD-1 mice at 4-5 weeks of age (obtained from Charles River) were injected subcutaneously twice a week for four weeks (for a total of 8 treatments) with 50 mg/kg of modified oligonucleotides. One group of male CD-1 mice was injected with PBS. Mice were euthanized on day 27 post start of treatment (24 hrs following the final administration).
(§2) Body weights of CD-1 mice were measured at the end of the study, and the average body weight for each group is presented in the table below. Modified oligonucleotides that caused any changes in organ weights outside the expected range for modified oligonucleotides were excluded from further studies.

[2] = Tolerability in CD-1 mice, plasma chemistry markers (Example 17); assay type: in vivo; details: male CD-1 mice, 50 mg/kg s.c. twice a week for four weeks (8 treatments), day 27
Experimental: (§3) CD-1 mice were treated with modified oligonucleotides selected from studies described above and evaluated for changes in the levels of various plasma chemistry markers.
as §1

[3] = Tolerability in Sprague-Dawley rats, body and organ weights (Example 21); assay type: in vivo; details: male Sprague-Dawley rats, 50 mg/kg s.c. weekly for 6 weeks (7 doses); for Kidney weight / Liver weight / Spleen weight: end of study; for body weight: terminal, prior to necropsy
Experimental: Terminal body weight was measured prior to necropsy. Ionis oligonucleotides that caused any changes in organ weights outside the expected range for modified oligonucleotides were excluded from further studies.

Yap1 mRNA [4] = assay: Inhibition of human Yap1 mRNA in SNU449 hepatocellular carcinoma xenograft tumors (Example 26); assay type: in vivo; details: SNU449 xenografts in NSG mice, 50 mg/kg twice weekly for five days, relative to PBS treated animals
Experimental: A SNU449 hepatocellular carcinoma xenograft tumor model was used to evaluate activity of modified oligonucleotides targeted to human Yap1. Ten million SNU449 cells in 30% matrigel were implanted subcutaneously into the flanks of female NOD Cg-Prkdcscid ll2rgtm1Wjl/SzJ (NSG) mice (from Jackson Laboratory) at 4-6 weeks of age. When tumors reached an average volume of 100 mm^3, approximately two weeks post-implantation, groups of four mice each were administered at 50 mg/kg twice weekly with modified oligonucleotides for five days. Tumors were collected and tested for Yap1 mRNA knockdown by RT-qPCR. Yap1 mRNA levels were measured as previously described using the Human Yap1 primer-probe set RTS4814. Yap1 mRNA levels were normalized to actin-beta content, as measured by primer probe set RTS5002. Results are presented in the tables below as percent control of the amount of Yap1 mRNA relative to PBS treated animals (% control).

[5] = Tolerability in Sprague-Dawley rats, kidney function, urine total protein to creatinine ratio (Example 21); details: male Sprague-Dawley rats, 50 mg/kg s.c. weekly for 6 weeks (7 doses)
Experimental: Male Sprague-Dawley rats were maintained on a 12-hour light/dark cycle and fed ad libitum with Purina normal rat chow. Groups of 4 Sprague-Dawley rats each were weekly injected subcutaneously with 50 mg/kg of Ionis oligonucleotide for 6 weeks (total 7 doses). Forty-eight hours after the last dose, the rats were euthanized; and organs, urine and plasma were harvested for further analysis.
To evaluate the effect of Ionis oligonucleotides on kidney function, urinary levels of total protein and creatinine were measured using an automated clinical chemistry analyzer (Hitachi Olympus AU400c, Melville, N.Y.).

[6] = Tolerability in Sprague-Dawley rats, plasma chemistry markers (Example 21); assay type: in vivo; details: male Sprague-Dawley rats, 50 mg/kg s.c. weekly for 6 weeks (7 doses), 48 hours after last dose
Experimental: Sprague-Dawley rats are a multipurpose model used for safety and efficacy evaluations. The rats were treated with Ionis modified oligonucleotides from the studies described in the Examples above and evaluated for changes in the levels of various plasma chemistry markers.

Yap1 mRNA [7] = assay: Dose-dependent inhibition of human Yap1 in SNU-449 cells (Example 9, RTS36584); assay type: cell-based; details: free uptake; for % UTC (Yap1 mRNA): approximately 48 hours; for pIC50: linear regression on a log/linear plot
Method in brief: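 SNU-449 cells (10,000/well) took up modified oligonucleotides by free uptake at a range of doses for about 48 h. Yap1 mRNA was quantified with primer-probe set RTS36584, normalised to RIBOGREEN total RNA and expressed as % untreated control; IC50 from linear regression on log/linear plot.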

[8] = Tolerability in CD-1 mice, plasma chemistry markers (Example 16); assay type: in vivo; details: male CD-1 mice, 50 mg/kg s.c. twice a week for four weeks (8 treatments), day 27
Experimental: as §3, §1

[9] = Tolerability in CD-1 mice, body and organ weights (Example 16); assay type: in vivo; details: male CD-1 mice, 50 mg/kg s.c. twice a week for four weeks (8 treatments), end of study (day 27)
Experimental: as §1, §2

Yap1 mRNA [10] = assay: Dose-dependent inhibition of human Yap1 in A-431 cells (Example 8, 10,000 cells per well, RTS4814); assay type: cell-based; details: free uptake, approximately 48 hours, RTS4814; for Yap1 mRNA, % UTC: A-431 cells, 10,000 cells per well; for pIC50: A-431 cells, linear regression on log/linear plot
Method in brief: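 A-431 cells (10,000/well) dosed with modified oligonucleotides by free uptake; Yap1 mRNA measured ~48 h later with primer-probe set RTS4814, normalized to total RNA (RIBOGREEN). Values are % of untreated control; IC50 from linear regression on log/linear plot.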

Substance | Kidney weight [3] | Liver weight [3] | Spleen weight [3] | body weight [3] [g] | URINE P/C ratio (total protein to creatinine ratio) [5] | ALT [6] | AST [6] | BUN [6] | TBIL [6] | % UTC (Yap1 mRNA) (Yap1 mRNA [7]; 31.3 nM) [% UTC] | % UTC (Yap1 mRNA) (Yap1 mRNA [7]; 125.0 nM) [% UTC] | % UTC (Yap1 mRNA) (Yap1 mRNA [7]; 500.0 nM) [% UTC] | % UTC (Yap1 mRNA) (Yap1 mRNA [7]; 2000.00 nM) [% UTC] | pIC50 (Yap1 mRNA [7]) | further results
1097037 (kA*kG*kA*dT*dT*dT*dA*dG*dG*dA*dT*dG*d[5mC]*kA*kT*kG; antisense) [compound 1097037] |  |  |  |  |  |  |  |  |  |  |  |  |  |  | Kidney weight [1]: 0.52 g; Liver weight [1]: 2.33 g; Spleen weight [1]: 0.21 g; body weight [1]: 33 g; ALT [2]: 73 U/L; AST [2]: 97 U/L; BUN [2]: 23 mg/dL; TBIL [2]: 0.12 mg/dL
1198615 (kT*kT*kA*dA*dA*dG*dT*dG*dT*dA*dT*dG*kT*k[5mC]*kA*eG) [compound 1198615] | 3.01 g | 16 g | 2.35 g | 369 | 8 | 38 U/L | 71 U/L | 21 mg/dL | 0.13 mg/dL | 52 | 23 | 5 | 2 | > 7.52 | Yap1 mRNA in tumors, % control (Yap1 mRNA [4]): 62 % control
1198873 (kA*kG*dT*dG*dT*dA*dT*dG*dT*d[5mC]*dA*kG*eA*kA*eG*kA; antisense) [compound 1198873] | 3.65 g | 19 g | 2.42 g | 408 | 9 | 78* U/L | 79* U/L | 24* mg/dL | 0.17* mg/dL | 38 | 12 | 2 | 0 | > 7.52 | 
1198612 (kA*kA*kG*dT*dG*dT*dA*dT*dG*dT*d[5mC]*dA*kG*kA*kA*eG) [compound 1198612] | 3.60 g | 17 g | 2.33 g | 345 | 11 | 74 U/L | 91 U/L | 31 mg/dL | 0.12 mg/dL | 44 | 12 | 2 | 0 | > 7.52 | 
1198312 (kG*k[5mC]*kA*d[5mC]*dT*dT*dT*dT*dA*d[5mC]*dA*dT*kT*eA*kG*eG) [compound 1198312] | 4.26 g | 19 g | 2.19 g | 365 | 60 | 132 U/L | 108 U/L | 25 mg/dL | 0.14 mg/dL | 76 | 34 | 10 | 5 | 7.00 | 
1198874 (kA*kA*dG*dT*dG*dT*dA*dT*dG*dT*d[5mC]*kA*eG*kA*eA*kG) [compound 1198874] | 3.67 g | 20 g | 2.61 g | 372 | 9 | 73 U/L | 102 U/L | 22 mg/dL | 0.16 mg/dL | 36 | 8 | 1 | 0 | > 7.52 | 
1200857 (kA*kG*kT*dG*dT*mA*dT*dG*dT*d[5mC]*dA*dG*dA*kA*kG*kA; antisense) [compound 1200857] | 6.97 g | 19 g | 2.55 g | 307 | 52 | 183 U/L | 318 U/L | 56 mg/dL | 4.93 mg/dL | 66 | 30 | 8 | 2 | 7.00 | 
1076186 (kA*kT*kT*dT*dA*dG*dG*dA*dT*dG*d[5mC]*dA*dT*kG*kG*kT) [compound 1076186] |  |  |  |  |  |  |  |  |  |  |  |  |  |  | ALT [8]: 74 U/L; AST [8]: 97 U/L; Albumin [8]: 2.5 g/dL; BUN [8]: 23 mg/dL; TBIL [8]: 0.16 mg/dL; Kidney weight [9]: 0.58 g; Liver weight [9]: 2.42 g; Spleen weight [9]: 0.16 g; body weight [9]: 37 g
1075395 (antisense kA*kT*kG*dA*dA*dT*dA*dA*dG*dT*dA*dT*dG*k[5mC]*k[5mC]*kA) [compound 1075395] |  |  |  |  |  |  |  |  |  |  |  |  |  |  | Yap1 mRNA, % UTC (Yap1 mRNA [10]; 31.3 nM): 60 % UTC; Yap1 mRNA, % UTC (Yap1 mRNA [10]; 125.0 nM): 18 % UTC; Yap1 mRNA, % UTC (Yap1 mRNA [10]; 500.0 nM): 7 % UTC; Yap1 mRNA, % UTC (Yap1 mRNA [10]; 2000.00 nM): 5 % UTC; pIC50 (Yap1 mRNA [10]): > 7.70; Kidney weight [1]: 0.49 g; Liver weight [1]: 2.30 g; Spleen weight [1]: 0.20 g; body weight [1]: 34 g; ALT [2]: 38 U/L; AST [2]: 51 U/L; BUN [2]: 21 mg/dL; TBIL [2]: 0.18 mg/dL
1074756 (kG*k[5mC]*kA*d[5mC]*dT*dT*dT*dT*dA*d[5mC]*dA*dT*dT*kA*kG*kG) [compound 1074756] | 4.71* g | 21* g | 1.99* g | 349 | 167 | 114* U/L | 79* U/L | 0.57* mg/dL | 0.10* mg/dL | 42 | 20 | 6 | 3 | > 7.52 | Yap1 mRNA, % UTC (Yap1 mRNA [10]; 31.3 nM): 22 % UTC; Yap1 mRNA, % UTC (Yap1 mRNA [10]; 125.0 nM): 7 % UTC; Yap1 mRNA, % UTC (Yap1 mRNA [10]; 500.0 nM): 4 % UTC; Yap1 mRNA, % UTC (Yap1 mRNA [10]; 2000.00 nM): 4 % UTC; pIC50 (Yap1 mRNA [10]): > 7.70
